Patent publication US20090131513A1, “ANTI-INFLAMMATORY MODALITIES” (Novogen Research Pty Ltd., priority 2005, published 2009)

Tests used:
NFκB promoter activity = test: Inhibition of NFκB promoter activity (β-lactamase reporter) in TNFα-stimulated THP-1 cells; assay type: cell-based, human; settings: 5 h
Description: Human macrophage THP-1 cells, modified to include the β-lactamase reporter gene, were seeded into wells of a 96-well plate (50×10^3 cells/well) in the presence of RPMI 1640 medium (70 μl). TNFα (7.5 ng/ml) and human sera (final concentration of 20%) were added to each well. Plates were incubated for 5 h at 37° C. to allow for NFkB-stimulated β-lactamase production. LiveBLAzer™ FRET B/G Substrate (CCF4-AM) was then added to assay for β-lactamase activity. Once CCFA-AM enters a cell, it is converted to negatively charged CCF4 by endogenous esterases. Excitation of this substrate at 409 nm leads to efficient FRET between the coumarin and fluorescein moieties, resulting in a green fluorescence detectable at 530 nm. The presence of β-lactamase leads to cleavage of CCF4 and results in a loss of FRET, resulting in a robust blue fluorescent signal detectable at 460 nm. Thus, activity of beta-lactamase (a marker of NFkB-promoter activity) is measured as a product to substrate ratio (blue/green fluorescence ratio: 460 nm/530 nm).

[1] = test system: eicosanoid synthesis by the inflamed colon; test: PGE2 and TXB2 production by cultured colons from DSS colitis mice (Experiment 4); assay type: in vivo
Description: Groups of mice (n=5) were dosed once daily with Compound 11 mg/kg or vehicle throughout the experiment, and killed either on day 6, 9 or 13. Colons were removed, opened longitudinally and washed in PBS with pen/strep (100 U/ml/100 μg/ml, Invitrogen) with added fungizone (2.5 ug/ml, Invitrogen). They were then cut into small portions and approximately 100 mg colon was placed into one well of a 24-well plate either in the presence or absence of ConA (10 μg/ml, Sigma) containing 1 ml modified RPMIc (pen/strep and fungizone as above) for 18-24 hours. Supernatant was collected, centrifuged and stored at −80° C. PGE2 and TXB2 in the culture supernatants were measured in triplicate by ELISA (Cayman Chemical).

SMILES | inhibition of NFκB compared to vehicle control (NFκB promoter activity) | PGE2 and TXB2 responses of colons cultured in the presence of ConA ([1]; ConA 10 μg/ml) | TXB2 production by colons versus DSS + vehicle ([1]; cultured in the absence of mitogenic stimulation, day 6 and day 9 (p<0.05)) | PGE2 production by colons versus DSS + vehicle ([1]; cultured in the absence of mitogenic stimulation, day 9 and day 13)
Oc1ccc(C2COc3c(ccc(O)c3O)C2O)cc1 (stereo not shown) [Compound 2] | significantly (p<0.001) inhibited | – | – | –
O=C1c2ccc(O)c(Br)c2OCC1c1ccc(O)cc1 (stereo not shown) [Compound 1, 3-(4-hydroxyphenyl)-7-hydroxy-8-bromo-chroman-4-one] | – | reduce these responses, although not significantly so | less TXB2 | less PGE2
